From PubChem BioAssay AID2060602 (Molecular Pharmacology Branch, DTP, NCI, 2025)
Several values for one entry are separate records, joined by “and”; a condition that tells them apart may be missing. Identical values can stand only once.

Test system: 648629-189-R-J1-PDC complex spheroids viability
Assay: Anticancer human tumor 648629-189-R-J1-PDC patient-derived bladder carcinoma cell line growth inhibition [CLK]
Conditions: for viability, T/C: stronger effect = lower value
Summary of the method: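 Patient-derived tumor cells grown as complex spheroids with HUVEC endothelial cells and mesenchymal stem cells, treated with drug combinations. Concentrations descend in half-log steps from near clinical Cmax, or from 10 microM if Cmax unknown.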

[1] = curve of first compound, second compound 0.0316 µM
[2] = curve of first compound, second compound 0.1 µM
[3] = curve of first compound, second compound 0.316 µM
[4] = curve of first compound, second compound 1 µM
[5] = curve of first compound, second compound 3.16 µM
[6] = curve of first compound, second compound 10 µM
[7] = second compound 0.0316 µM, first compound 0.0316 µM
[8] = second compound 0.0316 µM, first compound 0.1 µM
[9] = second compound 0.0316 µM, first compound 0.316 µM
[10] = second compound 0.0316 µM, first compound 1 µM
[11] = second compound 0.0316 µM, first compound 3.16 µM
[12] = second compound 0.0316 µM, first compound 10 µM
[13] = second compound 0.1 µM, first compound 0.0316 µM
[14] = second compound 0.1 µM, first compound 0.1 µM
[15] = second compound 0.1 µM, first compound 0.316 µM
[16] = second compound 0.1 µM, first compound 1 µM
[17] = second compound 0.1 µM, first compound 3.16 µM
[18] = second compound 0.1 µM, first compound 10 µM
[19] = second compound 0.316 µM, first compound 0.0316 µM
[20] = second compound 0.316 µM, first compound 0.1 µM
[21] = second compound 0.316 µM, first compound 0.316 µM
[22] = second compound 0.316 µM, first compound 1 µM
[23] = second compound 0.316 µM, first compound 3.16 µM
[24] = second compound 0.316 µM, first compound 10 µM
[25] = second compound 1 µM, first compound 0.0316 µM
[26] = second compound 1 µM, first compound 0.1 µM
[27] = second compound 1 µM, first compound 0.316 µM
[28] = second compound 1 µM, first compound 1 µM
[29] = second compound 1 µM, first compound 3.16 µM
[30] = second compound 1 µM, first compound 10 µM
[31] = second compound 3.16 µM, first compound 0.0316 µM
[32] = second compound 3.16 µM, first compound 0.1 µM
[33] = second compound 3.16 µM, first compound 0.316 µM
[34] = second compound 3.16 µM, first compound 1 µM
[35] = second compound 3.16 µM, first compound 3.16 µM
[36] = second compound 3.16 µM, first compound 10 µM
[37] = second compound 10 µM, first compound 0.0316 µM
[38] = second compound 10 µM, first compound 0.1 µM
[39] = second compound 10 µM, first compound 0.316 µM
[40] = second compound 10 µM, first compound 1 µM
[41] = second compound 10 µM, first compound 3.16 µM
[42] = second compound 10 µM, first compound 10 µM
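For viability, T/C in this document: drug exposure lasted seven days before viability readout; 100% = DMSO vehicle control wells.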

With `COc1ccc([C@@H](O)c2cc(-c3ncnc4cc(N5CCOCC5)ccc34)c(F)cc2Cl)nn1` + CNC(=O)c1ccc(Nc2nc(OC3CCCC3)c3c(-c4ccc5nc(C)oc5c4)c[nH]c3n2)c(OC)c1 the IC50 [1] was 9760 nM, the IC50 [2] was 7740 nM and the IC50 [3] was less than 31.6 nM. It also gave an IC50 [4] of less than 31.6 nM, an IC50 [5] of less than 31.6 nM and an IC50 [6] of less than 31.6 nM. For the same compound, the viability, T/C [7] was 105%, the viability, T/C [8] was 93% and the viability, T/C [9] was 97%. For the same compound, the viability, T/C [10] was 85.3%, the viability, T/C [11] was 67.4% and the viability, T/C [12] was 49.7%. For the same compound, the viability, T/C [13] was 90.6%, the viability, T/C [14] was 89.3% and the viability, T/C [15] was 83.7%. For the same compound, the viability, T/C [16] was 82%, the viability, T/C [17] was 60.5% and the viability, T/C [18] was 47%. For the same compound, the viability, T/C [19] was 30.8%, the viability, T/C [20] was 27% and the viability, T/C [21] was 26.8%. For the same compound, the viability, T/C [22] was 24.6%, the viability, T/C [23] was 22.4% and the viability, T/C [24] was 24.2%. For the same compound, the viability, T/C [25] was 20.2%, the viability, T/C [26] was 22.2% and the viability, T/C [27] was 20.5%. The viability, T/C [28] was 17.5%, the viability, T/C [29] was 22.4% and the viability, T/C [30] was 16%. The viability, T/C [31] was 21.3%, the viability, T/C [32] was 20.5% and the viability, T/C [33] was 20.4%. For the same compound, the viability, T/C [34] was 15%, the viability, T/C [35] was 19.2% and the viability, T/C [36] was 18.1%. The viability, T/C [37] was 19.6%, the viability, T/C [38] was 17.1% and the viability, T/C [39] was 21.7%. The viability, T/C [40] was 20.1%, the viability, T/C [41] was 19.1% and the viability, T/C [42] was 15.7%.
`CC(Nc1ccc2c(c1)OCCn1cc(N3C(=O)OCC3C(F)F)nc1-2)C(N)=O` (stereo not drawn) + CNC(=O)c1ccc(Nc2nc(OC3CCCC3)c3c(-c4ccc5nc(C)oc5c4)c[nH]c3n2)c(OC)c1 showed an IC50 [1] of 5870 nM, an IC50 [2] of 9490 nM and an IC50 [3] of less than 31.6 nM. The IC50 [4] was less than 31.6 nM, the IC50 [5] was less than 31.6 nM and the IC50 [6] was less than 31.6 nM. The viability, T/C [7] was 114%, the viability, T/C [8] was 106% and the viability, T/C [9] was 89.4%. It also gave a viability, T/C [10] of 67.8%, a viability, T/C [11] of 64.9% and a viability, T/C [12] of 40.6%. For the same compound, the viability, T/C [13] was 95.7%, the viability, T/C [14] was 89.9% and the viability, T/C [15] was 84.1%. It also gave a viability, T/C [16] of 77.3%, a viability, T/C [17] of 62.2% and a viability, T/C [18] of 49.6%. For the same compound, the viability, T/C [19] was 27.7%, the viability, T/C [20] was 37.6% and the viability, T/C [21] was 33.7%. It also gave a viability, T/C [22] of 34%, a viability, T/C [23] of 31.2% and a viability, T/C [24] of 27.1%. It also gave a viability, T/C [25] of 17%, a viability, T/C [26] of 22.3% and a viability, T/C [27] of 18.5%. For the same compound, the viability, T/C [28] was 17.5%, the viability, T/C [29] was 16.6% and the viability, T/C [30] was 14.8%. It also gave a viability, T/C [31] of 16.7%, a viability, T/C [32] of 20.3% and a viability, T/C [33] of 16.1%. It also gave a viability, T/C [34] of 17.8%, a viability, T/C [35] of 12.9% and a viability, T/C [36] of 15.9%. It also gave a viability, T/C [37] of 21.5%, a viability, T/C [38] of 19.8% and a viability, T/C [39] of 17.2%. It also gave a viability, T/C [40] of 15%, a viability, T/C [41] of 21.8% and a viability, T/C [42] of 11.5%.
Work on `C=CC(=O)N1CCN(c2nc(=O)n(-c3c(C)ccnc3C(C)C)c3nc(-c4c(O)cccc4F)c(F)cc23)C(C)C1` (stereo not drawn) + CNC(=O)c1ccc(Nc2nc(OC3CCCC3)c3c(-c4ccc5nc(C)oc5c4)c[nH]c3n2)c(OC)c1 yielded an IC50 [1] greater than 10000 nM, an IC50 [2] greater than 10000 nM and an IC50 [3] of less than 31.6 nM. It also gave an IC50 [4] of less than 31.6 nM, an IC50 [5] of less than 31.6 nM and an IC50 [6] of less than 31.6 nM. It also gave a viability, T/C [7] of 120%, a viability, T/C [8] of 110% and a viability, T/C [9] of 115%. The viability, T/C [10] was 108%, the viability, T/C [11] was 115% and the viability, T/C [12] was 110%. It also gave a viability, T/C [13] of 91.9%, a viability, T/C [14] of 94.6% and a viability, T/C [15] of 90.1%. For the same compound, the viability, T/C [16] was 87.9%, the viability, T/C [17] was 93.5% and the viability, T/C [18] was 82.5%. For the same compound, the viability, T/C [19] was 27%, the viability, T/C [20] was 24.8% and the viability, T/C [21] was 29.8%. The viability, T/C [22] was 39.2%, the viability, T/C [23] was 42.6% and the viability, T/C [24] was 66.2%. The viability, T/C [25] was 23.5%, the viability, T/C [26] was 26.6% and the viability, T/C [27] was 23.5%. For the same compound, the viability, T/C [28] was 24.2%, the viability, T/C [29] was 26.9% and the viability, T/C [30] was 46.2%. For the same compound, the viability, T/C [31] was 17.9%, the viability, T/C [32] was 22.7% and the viability, T/C [33] was 20.4%. For the same compound, the viability, T/C [34] was 22.6%, the viability, T/C [35] was 27.7% and the viability, T/C [36] was 31.8%. For the same compound, the viability, T/C [37] was 19.7%, the viability, T/C [38] was 20.5% and the viability, T/C [39] was 20.3%. The viability, T/C [40] was 27.3%, the viability, T/C [41] was 33.2% and the viability, T/C [42] was 28.5%.
`CCc1c2c(nc3ccc(O)cc13)-c1cc3c(c(=O)n1C2)COC(=O)[C@]3(O)CC` was tested, and the viability, T/C (compound 0.00316 µM) was 43.1% and 28.1%, the viability, T/C (compound 0.01 µM) was 17.6% and 10.2% and the viability, T/C (compound 0.0316 µM) was 6.99% and 10.1%. For the same compound, the viability, T/C (compound 0.1 µM) was 5.22% and 6.99%, the viability, T/C (compound 0.316 µM) was 4.52% and 6.06% and the viability, T/C (compound 1 µM) was 3.5% and 4.41%. For the same compound, the IC50 (curve of compound) was less than 3.16 nM.
